Laboratory results reported in patent US9049863B2, “Substituted (3R,4R)-4-cyan-3,4-diphenylbutanoates, method for the production thereof and use thereof as herbicides and plant growth regulators” (Bayer Intellectual Property GmbH, priority 2011, dated 2015).

These molecules were tested on a plurality of harmful plants (assay: Herbicidal pre-emergence action). Conditions: 320 g or less of active substance per hectare.
Assay type: in vivo
Source text: Seeds of monocotyledonous and dicotyledonous weed plants and crop plants are placed in wood-fiber pots in sandy loam and covered with soil. The compounds (I) according to the invention, formulated in the form of wettable powders (WP), are then applied as aqueous suspension or emulsion at a water application rate of 600 l/ha (converted) with the addition of 0.2% of wetting agent to the surface of the covering soil.
After the treatment, the pots are placed in a greenhouse and kept under good growth conditions for the test plants. After about 3 weeks, the effect of the preparations is scored visually in comparison with untreated controls as percentages. For example, 100% activity=the plants have died, 50% herbicidal activity or damage=the plants have been reduced by 50% or the plant mass has been reduced by 50%, 0% activity=like control plants.
`COC(=O)C[C@@H](c1cccc(F)c1)[C@@H](C#N)c1cccc(F)c1` [Example 2] was tested, and the “herbicidal activity against a plurality of harmful plants” value (“herbicidal activity against a plurality” for short) was “good herbicidal activity”. In the case of `COC(=O)C[C@@H](c1ccc(Cl)cc1)[C@@H](C#N)c1ccc(F)c(F)c1` [Example 3], the “herbicidal activity against a plurality” value is reported as “good herbicidal activity”. For `COC(=O)C[C@@H](c1ccc(Br)cc1)[C@@H](C#N)c1cccc(F)c1` [Example 4], the “herbicidal activity against a plurality” value was “good herbicidal activity”. With `COC(=O)C[C@@H](c1cccc(F)c1)[C@@H](C#N)c1cccc(Cl)c1` [Example 5] the “herbicidal activity against a plurality” value was “good herbicidal activity”. For `COC(=O)C[C@@H](c1cccc(F)c1)[C@@H](C#N)c1ccc(F)c(F)c1` [Example 6], the “herbicidal activity against a plurality” value was “good herbicidal activity”. With `COC(=O)C[C@@H](c1cccc(F)c1)[C@@H](C#N)c1ccccc1` [Example 7] the “herbicidal activity against a plurality” value was “good herbicidal activity”. For `COC(=O)C[C@@H](c1cccc(F)c1)[C@@H](C#N)c1ccc(F)cc1` [Example 8], the “herbicidal activity against a plurality” value was “good herbicidal activity”. For `COC(=O)C[C@@H](c1cccc(Cl)c1)[C@@H](C#N)c1cccc(F)c1` [Example 9], the “herbicidal activity against a plurality” value was “good herbicidal activity”. For `COC(=O)C[C@@H](c1cccc(Cl)c1)[C@@H](C#N)c1ccc(F)c(F)c1` [Example 10, Methyl (3R,4R)-3-(3-chlorophenyl)-4-cyano-4-(3,4-difluorophenyl)butanoate], the “herbicidal activity against a plurality” value was “good herbicidal activity”. With `COC(=O)C[C@@H](c1cccc(F)c1)[C@@H](C#N)c1cccc(Br)c1` [Example 11] the “herbicidal activity against a plurality” value was “good herbicidal activity”. `COC(=O)C[C@@H](c1cccc(F)c1)[C@@H](C#N)c1cc(F)cc(F)c1` [Example 12] was tested, and the “herbicidal activity against a plurality” value was “good herbicidal activity”. `COC(=O)C[C@@H](c1ccccc1F)[C@@H](C#N)c1cccc(F)c1` [Example 13] was tested, and the “herbicidal activity against a plurality” value was “good herbicidal activity”. `COC(=O)C[C@@H](c1ccc(Cl)cc1)[C@@H](C#N)c1cc(F)c(F)c(F)c1` [Example 14] was tested, and the “herbicidal activity against a plurality” value was “good herbicidal activity”. With `COC(=O)C[C@@H](c1cccc(Cl)c1)[C@@H](C#N)c1ccc(F)cc1` [Example 15] the “herbicidal activity against a plurality” value was “good herbicidal activity”. With `COC(=O)C[C@@H](c1ccc(Cl)c(F)c1)[C@@H](C#N)c1ccc(F)c(F)c1` [Example 16] the “herbicidal activity against a plurality” value was “good herbicidal activity”. In the case of `COC(=O)C[C@@H](c1ccccc1F)[C@@H](C#N)c1ccc(F)c(F)c1` [Example 17], the “herbicidal activity against a plurality” value is reported as “good herbicidal activity”. `COC(=O)C[C@@H](c1cccc(F)c1F)[C@@H](C#N)c1cccc(F)c1` [Example 18] was tested, and the “herbicidal activity against a plurality” value was “good herbicidal activity”. With `COC(=O)C[C@@H](c1cc(F)cc(F)c1)[C@@H](C#N)c1ccc(F)cc1` [Example 19] the “herbicidal activity against a plurality” value was “good herbicidal activity”. `COC(=O)C[C@@H](c1ccc(F)cc1)[C@@H](C#N)c1cccc(F)c1` [Example 20] was tested, and the “herbicidal activity against a plurality” value was “good herbicidal activity”. With `COC(=O)C[C@@H](c1cc(F)cc(Cl)c1)[C@@H](C#N)c1ccc(F)c(F)c1` [Example 21] the “herbicidal activity against a plurality” value was “good herbicidal activity”. In the case of `COC(=O)C[C@@H](c1cc(F)cc(Cl)c1)[C@@H](C#N)c1cccc(F)c1` [Example 22], the “herbicidal activity against a plurality” value is reported as “good herbicidal activity”. In the case of `COC(=O)C[C@@H](c1cc(F)ccc1F)[C@@H](C#N)c1cccc(F)c1` [Example 23], the “herbicidal activity against a plurality” value is reported as “good herbicidal activity”. In the case of `COC(=O)C[C@@H](c1cccc(F)c1F)[C@@H](C#N)c1ccc(F)c(F)c1` [Example 24], the “herbicidal activity against a plurality” value is reported as “good herbicidal activity”. In the case of `COC(=O)C[C@@H](c1cc(F)ccc1F)[C@@H](C#N)c1ccc(F)c(F)c1` [Example 25], the “herbicidal activity against a plurality” value is reported as “good herbicidal activity”. For `COC(=O)C[C@@H](c1cc(F)cc(Cl)c1)[C@@H](C#N)c1cccc(Cl)c1` [Example 26], the “herbicidal activity against a plurality” value was “good herbicidal activity”. `COC(=O)C[C@@H](c1cccc(Cl)c1)[C@@H](C#N)c1ccc(Cl)c(F)c1` [Example 27] was tested, and the “herbicidal activity against a plurality” value was “good herbicidal activity”. With `COC(=O)C[C@@H](c1cccc([N+](=O)[O-])c1)[C@@H](C#N)c1ccc(F)c(F)c1` [Example 28] the “herbicidal activity against a plurality” value was “good herbicidal activity”. With `COC(=O)C[C@@H](c1ccccc1)[C@@H](C#N)c1ccc(F)c(F)c1` [Example 29] the “herbicidal activity against a plurality” value was “good herbicidal activity”. For `COC(=O)C[C@@H](c1cccc(F)c1)[C@@H](C#N)c1ccc(F)c(Cl)c1` [Example 30], the “herbicidal activity against a plurality” value was “good herbicidal activity”. With `CCOC(=O)C[C@@H](c1ccc(OC)cc1)[C@@H](C#N)c1ccc(F)c(F)c1` [Example 31] the “herbicidal activity against a plurality” value was “good herbicidal activity”. `N#C[C@@H](c1cccc(F)c1)[C@@H](CC(=O)OC1COC1)c1ccc(Cl)cc1` [Example 53] was tested, and the “herbicidal activity against a plurality” value was “good herbicidal activity”. For `N#C[C@@H](c1cccc(F)c1)[C@@H](CC(=O)OCCSc1ccccc1)c1ccc(Cl)cc1` [Example 54], the “herbicidal activity against a plurality” value was “good herbicidal activity”. With `N#C[C@@H](c1cccc(F)c1)[C@@H](CC(=O)OCC[S+]([O-])c1ccccc1)c1ccc(Cl)cc1` (some centres unmarked) [Example 55] the “herbicidal activity against a plurality” value was “good herbicidal activity”. In the case of `CCOC(=O)C[C@@H](c1cccc(F)c1)[C@@H](C#N)c1ccc(F)c(F)c1` [Example 83], the “herbicidal activity against a plurality” value is reported as “good herbicidal activity”. In the case of `CCCOC(=O)C[C@@H](c1cccc(F)c1)[C@@H](C#N)c1ccc(F)c(F)c1` [Example 84], the “herbicidal activity against a plurality” value is reported as “good herbicidal activity”. `CC(C)OC(=O)C[C@@H](c1cccc(F)c1)[C@@H](C#N)c1ccc(F)c(F)c1` [Example 85] was tested, and the “herbicidal activity against a plurality” value was “good herbicidal activity”. In the case of `CC(C)COC(=O)C[C@@H](c1cccc(F)c1)[C@@H](C#N)c1ccc(F)c(F)c1` [Example 87], the “herbicidal activity against a plurality” value is reported as “good herbicidal activity”. `N#C[C@@H](c1ccc(F)c(F)c1)[C@@H](CC(=O)O)c1cccc(Cl)c1` [Example 107, (3R,4R)-3-(3-Chlorophenyl)-4-cyano-4-(3,4-difluorophenyl)butanoic acid] was tested, and the “herbicidal activity against a plurality” value was “good herbicidal activity”. `CCOC(=O)C[C@@H](c1cccc(Cl)c1)[C@@H](C#N)c1ccc(F)c(F)c1` [Example 108] was tested, and the “herbicidal activity against a plurality” value was “good herbicidal activity”. For `CCCCOC(=O)C[C@@H](c1cccc(Cl)c1)[C@@H](C#N)c1ccc(F)c(F)c1` [Example 111], the “herbicidal activity against a plurality” value was “good herbicidal activity”. With `CC(C)COC(=O)C[C@@H](c1cccc(Cl)c1)[C@@H](C#N)c1ccc(F)c(F)c1` [Example 112] the “herbicidal activity against a plurality” value was “good herbicidal activity”. For `COC(=O)C[C@@H](c1c(F)cccc1F)[C@@H](C#N)c1cccc(F)c1` [Example 162], the “herbicidal activity against a plurality” value was “good herbicidal activity”. In the case of `COC(=O)C[C@@H](c1c(F)cccc1F)[C@@H](C#N)c1ccc(F)c(F)c1` [Example 174], the “herbicidal activity against a plurality” value is reported as “good herbicidal activity”. For `COC(=O)C[C@@H](c1cc(F)ccc1F)[C@@H](C#N)c1ccc(Cl)c(Cl)c1` [Example 208], the “herbicidal activity against a plurality” value was “good herbicidal activity”. `COC(=O)C[C@@H](c1c(F)cccc1F)[C@@H](C#N)c1ccc(F)c(Cl)c1` [Example 227] was tested, and the “herbicidal activity against a plurality” value was “good herbicidal activity”. For `CCOC(=O)C[C@@H](c1c(F)cccc1F)[C@@H](C#N)c1ccc(F)c(F)c1` [Example 283], the “herbicidal activity against a plurality” value was “good herbicidal activity”. For `COC(=O)C[C@@H](c1cccc(Cl)c1)[C@@H](C#N)c1cccc(C#N)c1` [Example 326], the “herbicidal activity against a plurality” value was “good herbicidal activity”. `COC(=O)C[C@@H](c1ccc(Cl)cc1)[C@@H](C#N)c1cccc(C#N)c1` [Example 329] was tested, and the “herbicidal activity against a plurality” value was “good herbicidal activity”. In the case of `COC(=O)C[C@@H](c1cc(F)ccc1F)[C@@H](C#N)c1cccc(C#N)c1` [Example 330], the “herbicidal activity against a plurality” value is reported as “good herbicidal activity”. With `COC(=O)C[C@@H](c1cccc(F)c1)[C@@H](C#N)c1ccc(F)c(C#N)c1` [Example 339] the “herbicidal activity against a plurality” value was “good herbicidal activity”. With `COC(=O)C[C@@H](c1cccc(Cl)c1)[C@@H](C#N)c1ccc(F)c(C#N)c1` [Example 340] the “herbicidal activity against a plurality” value was “good herbicidal activity”. `COC(=O)C[C@@H](c1ccc(Cl)cc1)[C@@H](C#N)c1ccc(F)c(C#N)c1` [Example 343] was tested, and the “herbicidal activity against a plurality” value was “good herbicidal activity”. With `COC(=O)C[C@@H](c1cc(F)ccc1F)[C@@H](C#N)c1ccc(F)c(C#N)c1` [Example 344] the “herbicidal activity against a plurality” value was “good herbicidal activity”. For `COC(=O)C[C@@H](c1cc(F)ccc1F)[C@@H](C#N)c1ccc(F)c(Br)c1` [Example 358], the “herbicidal activity against a plurality” value was “good herbicidal activity”. `COC(=O)C[C@@H](c1c(F)cccc1F)[C@@H](C#N)c1ccc(F)c(Br)c1` [Example 359] was tested, and the “herbicidal activity against a plurality” value was “good herbicidal activity”. For `COC(=O)C[C@@H](c1ccc(OC)c(F)c1)[C@@H](C#N)c1ccc(F)c(F)c1` [Example 390], the “herbicidal activity against a plurality” value was “good herbicidal activity”.
